Legend:
[1] = tested on: Bifidobacterium Infantis ATCC 15697; test: Growth of Bifidobacterium infantis in RCM without glucose, with or without test ingredient (optical density at 595 nm, 30 hours); assay type: cell-based; settings: for growth in wells containing the test ingredient versus control medium: optical density 595 nm; for effect on the growth of Bifidobacterium infantis (summary statement): summary in the description
Procedure: (§1) Reinforced Clostridia Medium (RCM) was used for cultivating the bifidobacteria. RCM without glucose was used as a control medium. RCM is a well-known medium for cultivating and enumerating anaerobes, which was first formulated by Hirsch and Grinstead, J. Dairy Res., 21:101 (1954). The test ingredients were 2′-fucosyllactose, 6′-sialyllactose and 3′-sialyllactose dissolved in the control medium at the following concentrations: 1 mg/ml 2′-fucosyllactose; 1 mg/ml 6′-sialyllactose; and, 2 mg/ml 3′-sialyllactose. The bifidobacteria were separately grown overnight anaerobically in RCM, and were then measured and diluted to an optical density of 0.1 as measured by absorbance spectroscopy at 595 nm, and were then further diluted ten-fold to make a working stock. For each test, 50 μl of working stock was added to each well of a 96 well plate containing either 200 μl of control medium (48 wells) or 200 μl test ingredient solution (48 wells). The plate was grown anaerobically for 30 hours and optical density was read at abs 595 nm every 15 minutes. The values for like wells were averaged and plotted over time (FIGS. 1, 3, and 5-7), and the area under the curve (AUC) was calculated over the 30-hour period (FIGS. 2 and 4).

[2] = tested on: Bifidobacterium Breve ATCC 15700; test: Growth of Bifidobacterium breve in RCM without glucose, with or without test ingredient (optical density at 595 nm, 30 hours); assay type: cell-based
Procedure: as §1

| SMILES | growth in wells containing the test ingredient versus control medium ([1]; 2 mg/ml 3′-sialyllactose, after 8 hours, FIG. 7) | effect on the growth of Bifidobacterium infantis (summary statement) [1] | growth in wells containing the test ingredient versus control medium ([2]; 2 mg/ml 3′-sialyllactose, after 6 hours, optical density 595 nm, FIG. 6) | effect on the growth of Bifidobacterium breve (summary statement) ([2]; summary in the description) | growth in wells containing the test ingredient versus control medium ([1]; 1 mg/ml 6′-sialyllactose, after 12 hours, FIG. 5) |
| --- | --- | --- | --- | --- | --- |
| CC(=O)N[C@H]1[C@H]([C@H](O)[C@H](O)CO)O[C@@](O[C@H]2[C@@H](O)[C@@H](CO)O[C@@H](O[C@H]3[C@H](O)[C@@H](O)C(O)O[C@@H]3CO)[C@@H]2O)(C(=O)O)C[C@@H]1O (stereo partly drawn) [3′-sialyllactose] | significantly greater | stimulates the growth | significantly greater | stimulates the growth |  |
| CC(=O)N[C@H]1[C@H]([C@H](O)[C@H](O)CO)O[C@@](OC[C@H]2O[C@@H](O[C@H]3[C@H](O)[C@@H](O)[C@H](O)O[C@@H]3CO)[C@H](O)[C@@H](O)[C@H]2O)(C(=O)O)C[C@@H]1O [6′-sialyllactose] |  | stimulates the growth |  |  | significantly greater |

Reference: US20120208782A1, “Modulation of Growth of Bifidobacteria Using a Combination of Oligosaccharides Found in Human Milk” (Wyeth LLC, priority 2011, published 2012)
